Laboratory results: patent publication US20240025906A1 (NEURON23, INC., priority 2022, published 2024)

Experiments:
[1] = test system: JAK1/TYK2 pSTAT5 (Tyr694/699) in THP-1 cell line; assay: IFNa-stimulated JAK1/TYK2 pSTAT5 (Tyr694/699) inhibition cellular assay, AlphaLISA; format: cell-based; conditions: Homo sapiens; THP-1 cells, IFNa-stimulated, AlphaLISA (Assay B); read-out: Cellular_THP1_IFNa-pSTATS_TYK2
Method in brief: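 The readout is AlphaLISA signal at 615 nm for phospho-STAT5 in THP-1 lysates after IFNa stimulation (added at 100 ng/mL, 30 min, 37 °C). Cells had compound for 1 h beforehand across eight 6-fold concentrations up to 10000 nM final. IC50s are 4PL fits with bottom and Hill slope constrained.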

TYK2 JH2 = molecular target: T1, TYK2 JH2 (Homo sapiens, UniProt P29597); assay: TYK2 JH2 binding assay (KINOMEscan KdELECT competitive binding); conditions: TYK2 JH2 domain, DiscoverX KINOMEscan KdELECT (Assay A); read-out: Biochemical TYK2_DiscoverX_JH2_BND_Kd
T1 construct: purchased DiscoverX (KINOMEscan KdELECT service); host or cells: E. coli BL21-derived (T7 phage display) or HEK-293
T1 sequence (P29597 589-875 limits assumed): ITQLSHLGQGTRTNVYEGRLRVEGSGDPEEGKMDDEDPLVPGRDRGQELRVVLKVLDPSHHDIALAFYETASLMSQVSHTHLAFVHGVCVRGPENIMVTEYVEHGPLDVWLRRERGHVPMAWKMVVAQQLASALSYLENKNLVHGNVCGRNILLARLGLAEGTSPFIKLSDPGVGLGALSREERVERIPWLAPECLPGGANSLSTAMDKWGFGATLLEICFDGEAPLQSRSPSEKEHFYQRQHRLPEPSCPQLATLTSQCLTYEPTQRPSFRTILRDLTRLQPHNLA
Method in brief: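 Competition binding, KdELECT format. Kinase (phage-tagged, E. coli BL21-derived host; or HEK-293, DNA-tagged) + ligand-coated streptavidin beads + cpd, 1 h RT, final DMSO 0.9%. Wash, elute 30 min with 0.5 μM non-biotinylated ligand; qPCR readout. Kd: 11-pt, 3-fold series.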

IC50 [1] [nM] | Kd (TYK2 JH2) [nM] | Compound
≤ 500 | ≤ 100 | CNc1ncc(-c2nc3cc(/C(C)=N/OC)ccc3o2)c2cc(NC(=O)C3CC3)ncc12 [Example 463, (E)-N-(5-(5-(1-(methoxyimino)ethyl)benzo[d]oxazol-2-yl)-8-(methylamino)-2,7-naphthyridin-3-yl)cyclopropanecarboxamide]
≤ 500 | ≤ 100 | CNc1ncc(-c2nc3cc(-c4ncn(C)n4)ccc3o2)c2cc(NC(=O)C3CC3)ncc12 [Example 464, N-(5-(5-(1-methyl-1H-1,2,4-triazol-3-yl)benzo[d]oxazol-2-yl)-8-(methylamino)-2,7-naphthyridin-3-yl)cyclopropanecarboxamide]
≤ 500 | ≤ 100 | [2H]C([2H])([2H])Nc1ncc(-c2nc3cc(N4CC(OC)C4)ccc3o2)c2cc(NC(=O)[C@H]3C[C@H]3C)ncc12 [Example 469, (1S,2R)—N-(5-(5-(3-methoxyazetidin-1-yl)benzo[d]oxazol-2-yl)-8-((methyl-d3)amino)-2,7-naphthyridin-3-yl)-2-methylcyclopropane-1-carboxamide]
≤ 500 | ≤ 100 | CNc1ncc(-c2nc3ccc(OC)cn3n2)c2cc(NC(=O)C3CC3)ncc12 [Example 470, N-(5-(6-methoxy-[1,2,4]triazolo[1,5-a]pyridin-2-yl)-8-(methylamino)-2,7-naphthyridin-3-yl)cyclopropanecarboxamide]
≤ 500 | ≤ 100 | CNc1ncc(-c2nc3ccc(N4CCOCC4)cn3n2)c2cc(NC(=O)C3CC3)ncc12 [Example 471, N-(8-(methylamino)-5-(6-morpholino-[1,2,4]triazolo[1,5-a]pyridin-2-yl)-2,7-naphthyridin-3-yl)cyclopropanecarboxamide]
≤ 500 | ≤ 100 | CNc1ncc(-c2nc3ccc(N4CC(F)(F)C4)cn3n2)c2cc(NC(=O)C3CC3)ncc12 [Example 472, N-(5-(6-(3,3-difluoroazetidin-1-yl)-[1,2,4]triazolo[1,5-a]pyridin-2-yl)-8-(methylamino)-2,7-naphthyridin-3-yl)cyclopropanecarboxamide]
≤ 500 | ≤ 100 | CNc1ncc(-c2nc3ccc(N4CC(F)C4)cn3n2)c2cc(NC(=O)C3CC3)ncc12 [Example 473, N-(5-(6-(3-fluoroazetidin-1-yl)-[1,2,4]triazolo[1,5-a]pyridin-2-yl)-8-(methylamino)-2,7-naphthyridin-3-yl)cyclopropanecarboxamide]
≤ 500 | ≤ 100 | CNc1ncc(-c2nc3ccc(N4CCC4)cn3n2)c2cc(NC(=O)C3CC3)ncc12 [Example 474, N-(5-(6-(azetidin-1-yl)-[1,2,4]triazolo[1,5-a]pyridin-2-yl)-8-(methylamino)-2,7-naphthyridin-3-yl)cyclopropanecarboxamide]
≤ 500 | ≤ 100 | CNc1ncc(-c2nc3ccc(N4CC(O)C4)cn3n2)c2cc(NC(=O)C3CC3)ncc12 [Example 475, N-(5-(6-(3-hydroxyazetidin-1-yl)-[1,2,4]triazolo[1,5-a]pyridin-2-yl)-8-(methylamino)-2,7-naphthyridin-3-yl)cyclopropanecarboxamide]
≤ 500 | ≤ 100 | CNc1ncc(-c2nc3ccc(N4CC(OC)C4)cn3n2)c2cc(NC(=O)C3CC3)ncc12 [Example 476, N-(5-(6-(3-methoxyazetidin-1-yl)-[1,2,4]triazolo[1,5-a]pyridin-2-yl)-8-(methylamino)-2,7-naphthyridin-3-yl)cyclopropanecarboxamide]
≤ 500 | ≤ 100 | CNc1ncc(-c2nc3ccc(N4CCO[C@H](C)C4)cn3n2)c2cc(NC(=O)C3CC3)ncc12 [Example 477, (R)-N-(8-(methylamino)-5-(6-(2-methylmorpholino)-[1,2,4]triazolo[1,5-a]pyridin-2-yl)-2,7-naphthyridin-3-yl)cyclopropanecarboxamide]
≤ 500 | ≤ 100 | CNc1ncc(-c2nc3ccc(N4CCO[C@@H](C)C4)cn3n2)c2cc(NC(=O)C3CC3)ncc12 [Example 478, (S)-N-(8-(methylamino)-5-(6-(2-methylmorpholino)-[1,2,4]triazolo[1,5-a]pyridin-2-yl)-2,7-naphthyridin-3-yl)cyclopropanecarboxamide]
≤ 500 | ≤ 100 | CNc1ncc(-c2nc3ccc(N4C[C@@H](C)O[C@@H](C)C4)cn3n2)c2cc(NC(=O)C3CC3)ncc12 [Example 479, N-(5-(6-((2R,6S)-2,6-dimethylmorpholino)-[1,2,4]triazolo[1,5-a]pyridin-2-yl)-8-(methylamino)-2,7-naphthyridin-3-yl)cyclopropanecarboxamide]
≤ 500 | ≤ 100 | CNc1ncc(-c2nc3ccc(N4CCO[C@H](C(F)(F)F)C4)cn3n2)c2cc(NC(=O)C3CC3)ncc12 [Example 481, (S)-N-(8-(methylamino)-5-(6-(2-(trifluoromethyl)morpholino)-[1,2,4]triazolo[1,5-a]pyridin-2-yl)-2,7-naphthyridin-3-yl)cyclopropanecarboxamide]
≤ 500 | ≤ 100 | CNc1ncc(-c2nc3ccc(N4CCO[C@@H](C(F)(F)F)C4)cn3n2)c2cc(NC(=O)C3CC3)ncc12 [Example 482, (R)-N-(8-(methylamino)-5-(6-(2-(trifluoromethyl)morpholino)-[1,2,4]triazolo[1,5-a]pyridin-2-yl)-2,7-naphthyridin-3-yl)cyclopropanecarboxamide]

The remaining lines, values behind:

Compound | IC50 [1] [nM] | Kd (TYK2 JH2) [nM]
CNc1ncc(-c2nc3cc(N4CCOCC4)ccc3o2)c2cc(Nc3cc(C)nc(C)n3)ncc12 [Example 449, N^6-(2,6-dimethylpyrimidin-4-yl)-N^1-methyl-4-(5-morpholinobenzo[d]oxazol-2-yl)-2,7-naphthyridine-1,6-diamine] | ≤ 500 | ≤ 100
CNc1ncc(-c2nc3cc(N4CCOCC4)ccc3o2)c2cc(NC(=O)NC3CC3)ncc12 [Example 450, 1-cyclopropyl-3-(8-(methylamino)-5-(5-morpholinobenzo[d]oxazol-2-yl)-2,7-naphthyridin-3-yl)urea] | ≤ 500 | ≤ 100
[2H]C([2H])([2H])Nc1ncc(-c2nc3cc(N4C5CCC4COC5)ccc3o2)c2cc(NC(=O)C3CC3)ncc12 [Example 453, N-(5-(5-(3-oxa-8-azabicyclo[3.2.1]octan-8-yl)benzo[d]oxazol-2-yl)-8-((methyl-d3)amino)-2,7-naphthyridin-3-yl)cyclopropanecarboxamide] | ≤ 500 | ≤ 100
[2H]C([2H])([2H])Nc1ncc(-c2nc3cc(OCC4CC4)ccc3o2)c2cc(NC(=O)C3CC3)ncc12 [Example 454, N-(5-(5-(cyclopropylmethoxy)benzo[d]oxazol-2-yl)-8-((methyl-d3)amino)-2,7-naphthyridin-3-yl)cyclopropanecarboxamide] | ≤ 500 | ≤ 100
[2H]C([2H])([2H])Nc1ncc(-c2nc3cc(N4C5CCC4COC5)ccc3o2)c2cc(NC(=O)[C@H]3C[C@H]3C)ncc12 [Example 455, (1S,2R)—N-(5-(5-(3-oxa-8-azabicyclo[3.2.1]octan-8-yl)benzo[d]oxazol-2-yl)-8-((methyl-d3)amino)-2,7-naphthyridin-3-yl)-2-methylcyclopropane-1-carboxamide] | ≤ 500 | ≤ 100
[2H]C([2H])([2H])Nc1ncc(-c2nc3cc(OCC4CC4)ccc3o2)c2cc(NC(=O)[C@H]3C[C@H]3C)ncc12 [Example 456, (1S,2R)—N-(5-(5-(cyclopropylmethoxy)benzo[d]oxazol-2-yl)-8-((methyl-d3)amino)-2,7-naphthyridin-3-yl)-2-methylcyclopropane-1-carboxamide] | ≤ 500 | ≤ 100
CCNc1ncc(-c2nc3cc(N4CC5CN(C)CC(C4)O5)ccc3o2)c2cc(NC(=O)C3CC3)ncc12 [Example 457, N-(8-(ethylamino)-5-(5-(7-methyl-9-oxa-3,7-diazabicyclo[3.3.1]nonan-3-yl)benzo[d]oxazol-2-yl)-2,7-naphthyridin-3-yl)cyclopropanecarboxamide] | ≤ 500 | ≤ 100
CCNc1ncc(-c2nc3cc(N4CCOCC4)ccc3o2)c2cc(NC(=O)C3CC3)ncc12 [Example 458, N-(8-(ethylamino)-5-(5-morpholinobenzo[d]oxazol-2-yl)-2,7-naphthyridin-3-yl)cyclopropanecarboxamide] | ≤ 500 | ≤ 100
CCNc1ncc(-c2nc3cc(OC)ccc3o2)c2cc(NC(=O)C3CC3)ncc12 [Example 459, N-(8-(ethylamino)-5-(5-methoxybenzo[d]oxazol-2-yl)-2,7-naphthyridin-3-yl)cyclopropanecarboxamide] | ≤ 500 | ≤ 100
CNc1ncc(-c2nc3nc(C)ccc3o2)c2cc(NC(=O)C3CC3)ncc12 [Example 460, N-(8-(methylamino)-5-(5-methyloxazolo[4,5-b]pyridin-2-yl)-2,7-naphthyridin-3-yl)cyclopropanecarboxamide] | ≤ 500 | ≤ 100
CNc1ncc(-c2nc3cc(/C(C)=N\OC)ccc3o2)c2cc(NC(=O)C3CC3)ncc12 [Example 462, (Z)—N-(5-(5-(1-(methoxyimino)ethyl)benzo[d]oxazol-2-yl)-8-(methylamino)-2,7-naphthyridin-3-yl)cyclopropanecarboxamide] | ≤ 500 | ≤ 100
